Source: patent US8648047B2, “Methods and compositions for inhibition of multi-drug resistance by hyaluronan oligomers” (Tufts University, priority 2002, dated 2014)

Key:
[1] = test system: TA3/St murine mammary carcinoma cells; experiment: Apoptosis assay in suspension culture; format: cell-based, mouse; conditions: 24 hours in suspension; 150 μg/ml controls, 50 nM wortmannin
Experimental: FIG. 3 is a bar graph showing induction of apoptosis by hyaluronan oligomers under anchorage-independent conditions. TA3/St murine mammary carcinoma cells were grown in suspension in serum-free medium for 24 hours in the presence of 50 or 150 μg/ml hyaluronan oligomers (o-HA), 150 μg/ml of ˜80 kDa molecular weight hyaluronan polymer (HA-80), 150 μg/ml chitin oligomers, 150 μg/ml chondroitin sulfate (CS), or 50 nM wortmannin (WM), a specific inhibitor of mammalian PI3 kinase (phosphoinositide 3-kinase). Apoptotic cells were then analyzed and counted as described in the EXAMPLES section. Results represent the average of two experiments and are expressed as percentage of total cells±range.
(§1) Treatment of tumor cells and preparation of cell lysates for biochemical assays. TA3/St and HCT116 cells were grown for 72 hours in 14 cm culture dishes, then harvested by trypsinization, washed in PBS and suspended in DMEM containing 10% FBS. Two million cells from these cultures were added to each well of non-adherent, Ultra-low cluster plates and incubated in suspension at 37° C. for a further 72 hours. […]
Apoptosis assay. […] Viable cells (green) and apoptotic cells containing fragmented nuclei (red) were counted and the percentage of apoptotic cells was then calculated.

[2] = test system: caspase-3 activity in TA3/St murine mammary carcinoma cells; experiment: Caspase-3 assay; format: cell-based, mouse; conditions: 150 μg/ml
Experimental: FIG. 4A is a bar graph showing stimulation of caspase-3 activity in TA3/St murine mammary carcinoma cells by hyaluronan oligomers. Cells were grown in suspension in serum-free medium for 24 hours in the presence of 10, 50 or 150 μg/ml hyaluronan oligomers (o-HA), 150 μg/ml chondroitin sulfate (CS), or 20 μM LY294002 (LY), a specific inhibitor of mammalian PI3 kinase, and then analyzed for caspase-3 activity. Results are presented as the mean of specific activity (absorbance at 405 nm/mg/90 min)±S.D. for three independent experiments.
as §1, with “hours. The cells from each well were then collected, washed in PBS, suspended in 5 ml DMEM medium containing 2% bovine serum albumin (Cohn Analog, Sigma), re-plated in the cluster plates, and incubated in suspension at 37° C. for 96 hours; similar results were obtained with pre-incubations of 24-96 hours for most measurements. The hyaluronan oligomers or other reagents were then added and the cells incubated for another 24 hours in suspension.” for “hours.”

[3] = test system: caspase-3 activity in HCT116 human colon carcinoma cells; experiment: Caspase-3 assay; format: cell-based; conditions: HCT116, 150 μg/ml
Experimental: Treatment of tumor cells and preparation of cell lysates for biochemical assays. TA3/St and HCT116 cells were grown for 72 hours in 14 cm culture dishes, then harvested by trypsinization, washed in PBS and suspended in DMEM containing 10% FBS. Two million cells from these cultures were added to each well of non-adherent, Ultra-low cluster plates and incubated in suspension at 37° C. for a further 72 hours. The cells from each well were then collected, washed in PBS, suspended in 5 ml DMEM medium containing 2% bovine serum albumin (Cohn Analog, Sigma), re-plated in the cluster plates, and incubated in suspension at 37° C. for 96 hours; similar results were obtained with pre-incubations of 24-96 hours for most measurements. The hyaluronan oligomers or other reagents were then added and the cells incubated for another 24 hours in suspension.
The cells treated as above were harvested by centrifugation at room temperature. The pellets were washed twice in PBS, then lysed in buffer containing 1% Nonidet P-40 and protease inhibitors. Cell lysis was achieved by vortexing for three cycles of 15 sec at high speed followed by cooling on ice. The lysate was centrifuged at 12,000×g for 15 min at 4° C. in an Eppendorf 5415R centrifuge. After measuring the protein content of the supernatant, it was flash-frozen in liquid nitrogen and stored at −80° C. until use in the assays below.
Caspase-3 assay. […]

[4] = test system: α-isoform of PI3 kinase in TA3/St cells; experiment: PI3 kinase α isoform assay (immunoprecipitated); format: cell-based, mouse; conditions: 150 μg/ml polysaccharide controls, 50 nM wortmannin
Experimental: (§3) PI3 kinase assay. For assay of total PI3 kinase, 250 ng of cell lysate protein were used per assay. Assays were performed in a 50 μl reaction mixture containing 0.001% Nonidet P-40, 159 μM ATP, 25 mM MgCl2, 5 mM EGTA, 150 μM ATP, 25 μCi of [γ-^32P] ATP, 125 mM MOPS, pH 7.0, and 0.2 mg/ml sonicated lipids containing phosphatidyl serine, phosphatidyl inositol and phosphatidyl inositol-4,5 bisphosphate in a 1:1:1 (v:v:v) ratio in sonication buffer (25 mM MOPS, pH 7.0, 1 mm EGTA) (Whitman, M. et al (1985) Nature 315, 239-242; Susa, M., et al. (1992) J Biol Chem 267, 22951-22956; Misra, S., et al. (1998) J Biol Chem 273, 26638-26644). The reactions were carried out at 37° C. for 20 min and stopped by addition of 100 μl of CH3OH/1M HCl (1:1). […] The organic layers were combined, dried under nitrogen, and analyzed by thin layer chromatography. ^32P-labeled phosphoinositides were resolved in water:acetic acid:n-propanol (34:1:65) and detected by autoradiography. ^32P incorporation into phosphatidylinositol 3,4,5-phosphate (PIP3) was quantified by liquid scintillation counting of thin layer chromatography spots scraped into and eluted in scintillation fluid.
(§4) For assay of specific PI3 kinase isoforms, whole cell lysates were incubated with antibody against the particular isoform plus protein A-Sepharose. PI3 kinase activity of the enzyme immobilized on beads was then measured as described above.

[5] = test system: α-isoform of PI3 kinase in HCT116 cells; experiment: PI3 kinase α isoform assay (immunoprecipitated); format: cell-based, human; conditions: same reagents as FIG. 5D
Experimental: as §3, §4

[6] = test system: phosphorylated Akt in TA3/St cells; experiment: Akt phosphorylation, Western blotting; format: cell-based, mouse; conditions: 150 μg/ml controls, 1:50 antibody to CD44 (FIG. 6C)
Experimental: FIG. 6A is a bar graph showing inhibition of Akt phosphorylation by hyaluronan oligomers in TA3/St murine mammary carcinoma cells treated in suspension with 1-150 μg/ml hyaluronan oligomers (o-HA) or 150 μg/mlchondroitin sulfate (CS). Cell lysates were then analyzed by Western blotting for phosphorylated Akt and quantified by densitometry. Results in A and B are presented as means of three independent experiments and expressed as percent untreated±S.D.
FIG. 6C is a representation of a Western blot of phosphorylated Akt from TA3/St cells: 1. untreated; 2. 150 μg/ml chondroitin sulfate; 3. 150 μg/ml hyaluronan polymer (mol. wt. ˜80 kDa); 4. 150 μg/ml chitin oligomers; 5. 50 μg/ml hyaluronan oligomers; 6. 150 μg/ml hyaluronan oligomers; 7. 50 nM wortmannin; 8. 20 μM LY294002; 9. 1:50 dilution of antibody against CD44. Results are representative of three experiments. Similar results to those in FIG. 6C were obtained also with HCT116 cells.
Treatment of tumor cells and preparation of cell lysates for biochemical assays. TA3/St and HCT116 cells were grown for 72 hours in 14 cm culture dishes, then harvested by trypsinization, washed in PBS and suspended in DMEM containing 10% FBS. […]
(§2) Immunoblotting. […] Immunoreactive bands were detected by enhanced chemiluminescence and the sizes of proteins were estimated using prestained molecular weight standards. Immunoreactive bands were quantified by densitometry. […]

PTEN in TA3/St cells = experiment: PTEN expression, immunoblotting; format: cell-based, mouse; conditions: similar amounts (150 μg/ml) of controls
Experimental: FIG. 8A is a bar graph showing stimulation of expression of PTEN, a tumor suppressor, by HA-oligomers, in TA3/St murine mammary carcinoma cells. Cells were treated in suspension and then processed for immunoblotting of PTEN. The bars represent densitometric quantification of immunoblots after treatment with 10-150 μg/ml hyaluronan oligomers (o-HA) or 150 μg/ml chondroitin sulfate (CS). Results are presented as means of three independent experiments and expressed as percent untreated±S.D.
FIG. 8C is an immunoblot using TA3/St murine mammary carcinoma cells treated as in lanes: 1. untreated; 2. 150 μg/ml chondroitin sulfate; 3. 150 μg/ml chitin oligomers; 4. 150 μg/ml hyaluronan polymer (mol. wt. ˜80 kDa); 5. 50 μg/ml hyaluronan oligomers; 6. 150 μg/ml hyaluronan oligomers. Results are representative of three experiments. Similar results to FIG. 8C were obtained also with HCT116 cells.
PTEN levels in TA3/St mouse mammary carcinoma cells were measured by Western blotting; values were obtained by scanning the blots. HA oligomers (oligo) at 50-100 μg/ml caused ˜6-fold increase in PTEN levels compared to untreated control. […]
as §2

[7] = test system: TA3/St murine mammary carcinoma cells; experiment: Proliferation in monolayer (anchorage-dependent) culture; format: cell-based, mouse; conditions: 100-150 μg/ml
[8] = test system: MCF-7/Adr drug-resistant human mammary carcinoma cells; experiment: Drug resistance, viable cell number (Coulter Counter); format: cell-based; conditions: MCF-7/Adr; decoys introduced by adenovirus infection, or siRNA (FIG. 18)
Experimental: FIG. 15A is a line graph showing that MCF-7/Adr drug-resistant human mammary carcinoma cells grown in culture with hyaluronan oligomers are sensitized to doxorubicin. MCF-7/Adr cells were obtained from MCF-7 cells by being selected for drug resistance by exposure to doxorubicin. Cells were grown for 24 h in 24-well plates in RPMI 1640 medium containing Glutamex 1 plus 10% fetal bovine serum at 37° in 5% CO2. Various concentrations of doxorubicin (doxo) were then added and the cells incubated for another 72 h, followed by a further 24 h in the presence or absence of 100 μg/ml hyaluronan oligomers (o-HA). The oligomers were a mixed population of 3-8 repeating disaccharides in length. The cells were then harvested and the number of viable cells was determined in a Coulter Counter.
FIG. 18 is a set of line graphs showing a resulting cell number, on the ordinate, following drug treatment with doxorubicin, concentration (log) in nM on the abscissa, showing restoration of drug sensitivity (inhibition of drug resistance) by HA oligomers, soluble hyaluronan-binding decoys, and CD44 siRNA, using derivatives of MCF-7 cells as in FIG. 17 above.
Therefore, the effect of co-treatment with hyaluronan oligomers on drug resistance was examined in an established system, i.e. MCF-7/Adr human mammary carcinoma cells that have been selected for resistance to doxorubicin (Fairchild, C. R., et al., Cancer Res 47, 5141-8, 1987). First, the effect of hyaluronan oligomers on resistance to doxorubicin in the MCF-7/Adr cells versus the relatively drug-sensitive, parental MCF-7 cell line was compared.

[9] = test system: TA3/St murine mammary carcinoma cells; conditions: soft agar; TA3/St transfectant clones over-expressing the protein; cited from earlier work

Substance | effect on apoptosis [1] | effect on caspase-3 activity [2] | effect on caspase-3 activity [3] | effect on PI3 kinase-α activity ([4]; 20 μM LY294002, 1:50 antibody to CD44) | effect on PI3 kinase-α activity ([4]; 20 μM LY294002, 1:50 antibody to CD44, listed as chondroitin sulfate (CS)) | effect on PI3 kinase-α activity [5] | effect on phosphorylation of Akt [6] | effect on PTEN levels (PTEN in TA3/St cells) | effect on PTEN levels (PTEN in TA3/St cells; listed as Chondroitin sulfate (CS)) | effect on proliferation [7] | reversal of doxorubicin resistance [8] | inhibition of anchorage-independent growth [9]
chondroitin sulfate | do not have significant effects | no significant effect | no significant effect | Neither hyaluronan polymer, nor chondroitin sulfate, nor chitin oligomers had a significant effect | had no effect | Neither hyaluronan polymer, nor chondroitin sulfate, nor chitin oligomers had a significant effect | not caused | do not stimulate PTEN levels | did not increase PTEN levels | – | – | –
soluble CD44: hyaluronan-binding decoy, over-expressed in cells by transfection or adenovirus | – | – | – | – | – | – | – | – | – | Neither HA oligomers nor soluble CD44 significantly affect proliferation | reversed | effective inhibitor
